Laboratory results: patent publication US10208049B2, “Compounds and methods of treating ocular disorders” (Case Western Reserve University, priority 2009, dated 2019)

Key:
Rdh8−/−Abca4−/− mice = test: SD-OCT grading of retinal degeneration in light-exposed Rdh8−/−Abca4−/− mice; type: in vivo, mouse; conditions: for effectiveness in treating retinal degeneration in the mice: ABCA4−/−/RDH8−/− mice, effective = OCT score at least about 2.5 and 11-cis-retinal increase at least about 30%; for Score OCT: Rdh8−/−Abca4−/− mice, SD-OCT 7 days after 10,000 lux illumination for 30 min at 4 weeks of age, score 5 = no degeneration, 1 = severe, No Treatment 1
Text: (§1) We tested 21 drugs containing primary amino groups to determine if they react with the aldehyde group of all-trans-RAL to reduce its toxic levels in the eye after exposure to light and prevent its condensation into toxic conjugates. […] For these experiments, we used ABCA4^−/−/RDH8^−/− mice as models for Stargardt's disease and AMD. We employed analytical methods for determining the pharmacodynamics and pharmacokinetics of candidate drugs including: HPLC/MS/MS for analysis of retinoids and histological sections and OCT for assessment of retinal pathology. The relative amount of retinoids and their composition strongly correlates with the health status of the retina. […] Methodologies for performing the analysis on ABCA4^−/−/RDH8^−/− mice is described below.
(§2) Abca4^−/− mice also were generated by standard procedures (Ingenious Targeting, Inc., Stony Brook, N.Y.). […] Rdh8^−/−Abca4^−/− mice were established by crossbreeding Abca4^−/− mice with Rdh8^−/− mice. […] PCR products were cloned and sequenced to verify their identities.
Although analytical and histological methods provide exhaustive characterization of retina, they cannot be performed in vivo. To reduce the number of sacrificed animals and time required for analysis, SD-OCT from Bioptigen (Research Triangle Park, N.C.) was employed for in vivo imaging of mouse retinas. Bioptigen OCT systems utilize a narrow single-mode beam from a wide bandwidth light source to probe the structure of retina at a higher resolution (2.0 μm) than normal OCT systems. Mice were anesthetized by intraperitoneal (IP) injection of 20 μl/g bw of 6 mg/ml ketamine and 0.44 mg/ml xylazine diluted with 10 mM sodium phosphate, pH 7.2, containing 100 mM NaCl. Pupils were dilated with 1% tropicamide. In vivo SD-OCT images were obtained from both eyes. Four pictures acquired in a B-scan mode were used to construct the final averaged images (FIG. 8).
In vivo retinal structures of Rdh8^−/−Abca4^−/− mice are imaged by SD-OCT 7 days after 10,000 lux illumination for 30 min at 4 weeks of age.

ABCA4−/−/RDH8−/− mice = test: HPLC analysis of 11-cis-retinal in eyes of ABCA4−/−/RDH8−/− mice; type: in vivo, mouse; conditions: HPLC peak area of 11-cis-retinal, No Treatment 88.2
Text: as §1, §2
All experimental procedures related to extraction, derivatization, and separation of retinoids from dissected mouse eyes were carried out under dim red light. Two whole mouse eyes were homogenized in 1 ml of 50 mM phosphate buffer, pH 7.0, containing 50% ethanol and 10 mM NH2OH. Ice-cold methanol (1 ml) was added to the homogenates 20 min after incubation at room temperature (RT), non-polar retinoids were extracted twice with 4 ml of hexane. The organic phase was collected, dried down in a SpeedVac and re-solubilized in 0.3 ml of hexane. […] Retinoids were detected at 325 nm (retinyl esters and retinols) and 350 nm (retinyl oximes) with a diode array detector. Those of interest were quantified based on the areas under their peaks calculated with the help of HP Chemstation A.03.03 software and compared with areas calculated based on known amounts of synthetic standards plotted as a standard curve.

[1] = Formation of Schiff base between retinal and selected amines (UV/Vis spectra); type: physicochemical; conditions: 90% ethanol in water, 0.1 M phosphate buffer pH 7.0, 2 molar excess of amine, 1 h room temperature
Description: Formation of conjugates (Schiff-base) between retinal and primary amine compounds containing amino group (putative drugs) is the key mechanism to control all-trans-RAL levels in the retina and prevent retina degeneration. Stability of these conjugates is an important factor that can determine biological activity of the drugs. To standardize conditions of Schiff-base formation all reactions were performed in 90% ethanol in water buffered with 0.1 M phosphate buffer, pH 7.0. Stock solution of retinal was made up freshly in ethanol. Its final concentration was determined spectrophotometrically at 380 nm (ε=42,880). All procedures were carried out in the dark. Schiff base formation was initiated by addition of retinal stock solution to a 2 molar excess of tested amine dissolved in the reaction buffer. The reaction mixture was incubated for 1 h in room temperature.
Steady-state rate of Schiff-base formation was obtained from absorbance changes at 380 and 440 nm (510 nm for aromatic amines) corresponding to free retinal and protonated Schiff base, respectively. To investigate stability of the given retinal conjugates a mixture of HPLC purified Schiff base of selected compound and phosphatidylocholine was dried down in SpeedVac. Then, Schiff-base and lipids were overlaid with 0.1 M phosphate buffer and sonicated immediately to form liposomes. The samples were extracted with hexane following 30 min incubated in room temperature. The breakdown of Schiff-base was monitored by HPLC detection of free retinal extracted from the reaction mixture.
FIGS. 3-5 illustrate UV/Vis spectra for the FDA approved drugs. FDA approved drugs that were active readily formed a Schiff base with all-trans-RAL as evidenced by a substantial differential between spectra of unprotonated and protonated Schiff base.

For `CC(C)C[C@@H](CN)CC(=O)O` [(R)-3-(aminomethyl)-5-methylhexanoic acid], the “effectiveness in treating retinal degeneration in the mice” value (“effectiveness” below) (Rdh8−/−Abca4−/− mice) was “effective in treating retinal degeneration” and the “11cRAL (area)” value (ABCA4−/−/RDH8−/− mice) was 164.8.
With `Nc1ccc(C(=O)NCC(=O)[O-])cc1.[Na+]` [Aminohippurate Sodium] the “Score OCT” value (Rdh8−/−Abca4−/− mice) was 1 and the “11cRAL (area)” value (ABCA4−/−/RDH8−/− mice) was 109.4.
With `Nc1ccc(O)c(C(=O)O)c1` [Asacol] the “effectiveness” value (Rdh8−/−Abca4−/− mice) was “effective in treating retinal degeneration” and the “11cRAL (area)” value (ABCA4−/−/RDH8−/− mice) was 140.2.
With `CC(C)(S)[C@@H](N)C(=O)O` [Cuprimine] the “Score OCT” value (Rdh8−/−Abca4−/− mice) was 1.7, the “11cRAL (area)” value (ABCA4−/−/RDH8−/− mice) was 118.5 and the “formation of stable Schiff-base with all-trans-RAL” value (shortened to “formation of stable Schiff-base”) [1] was “did not readily form stable Schiff-bases”.
In the case of `Nc1ccc(S(=O)(=O)c2ccc(N)cc2)cc1` [Dapsone], the “effectiveness” value (Rdh8−/−Abca4−/− mice) was “effective in treating retinal degeneration” and the “11cRAL (area)” value (ABCA4−/−/RDH8−/− mice) was 156.5.
In the case of `CC(N)C12CC3CC(CC(C3)C1)C2` (stereo not drawn) [Flumadine], the “effectiveness” value (Rdh8−/−Abca4−/− mice) was “effective in treating retinal degeneration” and the “11cRAL (area)” value (ABCA4−/−/RDH8−/− mice) was 135.3.
In the case of `N[C@@H](CC(=O)N1CCn2c(nnc2C(F)(F)F)C1)Cc1cc(F)c(F)cc1F` [Januvia], the “effectiveness” value (Rdh8−/−Abca4−/− mice) was “effective in treating retinal degeneration” and the “11cRAL (area)” value (ABCA4−/−/RDH8−/− mice) was 126.8.
For `COCCCC/C(=N\OCCN)c1ccc(C(F)(F)F)cc1` [Luvox], the “effectiveness” value (Rdh8−/−Abca4−/− mice) was “effective in treating retinal degeneration” and the “11cRAL (area)” value (ABCA4−/−/RDH8−/− mice) was 175.5.
For `CC(C)C[C@H](CN)CC(=O)O` [Lyrica, (S)-3-(aminomethyl)-5-methylhexanoic acid], the “effectiveness” value (Rdh8−/−Abca4−/− mice) was “effective in treating retinal degeneration”, the “11cRAL (area)” value (ABCA4−/−/RDH8−/− mice) was 166.5 and the “formation of stable Schiff-base” value [1] was “readily formed stable Schiff-bases”.
In the case of `CC12CC3CC(C)(C1)CC(N)(C3)C2` [Nameda], the “Score OCT” value (Rdh8−/−Abca4−/− mice) was 1.7 and the “11cRAL (area)” value (ABCA4−/−/RDH8−/− mice) was 97.6.
With `Nc1ccc(C(=O)O)c(O)c1` [Paser] the “effectiveness” value (Rdh8−/−Abca4−/− mice) was “effective in treating retinal degeneration”, the “11cRAL (area)” value (ABCA4−/−/RDH8−/− mice) was 151.9 and the “formation of stable Schiff-base” value [1] was “readily formed stable Schiff-bases”.
With `Nc1ccc(C(=O)[O-])cc1.[K+]` [Potaba] the “Score OCT” value (Rdh8−/−Abca4−/− mice) was 2.3, the “11cRAL (area)” value (ABCA4−/−/RDH8−/− mice) was 90.6 and the “formation of stable Schiff-base” value [1] was “did not readily form stable Schiff-bases”.
For `NCCCC[C@H](N[C@@H](CCc1ccccc1)C(=O)O)C(=O)N1CCC[C@H]1C(=O)O` [Prinivil], the “Score OCT” value (Rdh8−/−Abca4−/− mice) was 2.0 and the “11cRAL (area)” value (ABCA4−/−/RDH8−/− mice) was 132.7.
With `N[C@@H]1CON=C1O` [Seromycin] the “effectiveness” value (Rdh8−/−Abca4−/− mice) was “effective in treating retinal degeneration”, the “11cRAL (area)” value (ABCA4−/−/RDH8−/− mice) was 159.9 and the “formation of stable Schiff-base” value [1] was “readily formed stable Schiff-bases”.
With `NS(=O)(=O)c1cc2c(cc1Cl)N=C[N-]S2(=O)=O.[Na+]` [Sodium Diuril] the “effectiveness” value (Rdh8−/−Abca4−/− mice) was “effective in treating retinal degeneration” and the “11cRAL (area)” value (ABCA4−/−/RDH8−/− mice) was 139.7.
In the case of `NCc1ccc(S(N)(=O)=O)cc1` [Sulfamylon], the “effectiveness” value (Rdh8−/−Abca4−/− mice) was “effective in treating retinal degeneration” and the “11cRAL (area)” value (ABCA4−/−/RDH8−/− mice) was 166.1.
For `CCOC(=O)C1=C[C@@H](OC(CC)CC)[C@H](NC(C)=O)[C@@H](N)C1` [Tamiflu], the “Score OCT” value (Rdh8−/−Abca4−/− mice) was 1.3 and the “11cRAL (area)” value (ABCA4−/−/RDH8−/− mice) was 87.3.
